Measured values taken from US20140056866A1, “USE OF BIOLOGICAL OR CHEMICAL CONTROL AGENTS FOR CONTROLLING INSECTS AND NEMATODES IN RESISTANT CROPS” (priority 2010, published 2014).

What was measured:
S. frugiperda = experiment: Leaf sample bioassay with fall armyworm larvae (Example 3); type: in vivo; details: for Insect Mortality / Leaf Feeding Rating: 48 hours; for Insect Mortality: Jul. 14, 2011; for Leaf Feeding Rating: scale 0 = undamaged to 3 = severe feeding; for additional increase in mortality in the presence of Axmi205: versus clothianidin alone; for increase in mortality above the negative control: Axmi205-negative plants
Description: (§1) Zea Mays (Corn) seed from events traited with Axmi205 were selected. […] The population of the seed used is not entirely transgenic; plants without the trait in their DNA were used for control comparisons.
(§2) Seed was treated with seed applied pesticides using a hege bowl treater. Applications were made of: Clothianidin; available as Poncho though through Bayer CropScience. Rates were applied as mg ai/seed. The evaluation had non-target variables controlled.
(§3) During testing, samples of each plant were submitted for PCR to determine if an individual plant carried the Axmi205 gene (positive or negative). Plants for which no PCR results could be obtained were not included in the results.
(§4) Seed were planted into germination mix at a rate of one seed per root-trainer. Testing was conducted as a randomized complete block with 30 replications. Plants were maintained in a greenhouse and periodically assessed for emergence. After several weeks of growth, leaf samples were taken from plants and used to conduct insect bioassays on species of Lepidoptera. A leaf sample was placed into a Petri-dish and infested with 10 larvae of fall armyworm; Spodoptera frugiperda. After 48 hours dishes were evaluated for insect mortality and leaf feeding damage. When assessing leaf feeding, damage was recorded as a rating between 0-3, where zero was undamaged and three was severely damaged. After approximately three weeks from planting, plants were infested with Diabrotica virgifera (western corn rootworm). Western corn rootworm eggs were infested into the root system of plants. At approximately 15 days post infestation plants were extracted and insect feeding damage was evaluated following Iowa State University's Node-Injury Scale at www.ent.iastate.edu/pest/rootworm/nodeinjury/nodeinjury.html.

D. virgifera = experiment: Western corn rootworm root feeding damage, Node-Injury Scale (Example 3); type: in vivo, Diabrotica virgifera; details: for Root Damage Rating: 0 = undamaged, 3 = severely damaged
Description: as §1, §2, §3, §4

Glycine max (soybean) = experiment: Soybean shoot height and plant mass after metalaxyl seed treatment (Example 2); type: in vivo
Description: (§5) Glycine max (soybean) seed from an event traited with Axmi031 was selected. […] Plants that screened negative for the presence of the transgene were used for control comparisons.
(§6) Seed was treated with seed applied pesticides using a hege bowl treater. Metalaxyl (MTL), available as Allegiance through Bayer CropScience, was applied at rates of 2 and 4 g ai/100 kg seed. Trilex 2000 was also included as a commercial standard package.
(§7) During testing, samples of each plant were submitted for PCR to determine if an individual plant carried the Axmi031 gene (Positive or Negative). Plants for which no PCR results could be obtained were not included in results. There were a disproportionate number of positive plants. As a result, the number of negative plants available in some comparisons was very small.
(§8) Testing was conducted as a randomized complete block with 30 replications. Seed were planted into sand at a rate of one seed per pot. Plants were stored at 10° C. for eight days and then moved to 25° C. for the remainder of the test. Plants were periodically assessed for emergence. After several weeks of growth plants were evaluated for height. At approximately 40 days after planting, 5 random plants for each treatment comparison were selected for extraction. If fewer than 5 plants were available, evaluations were still conducted as long as a minimum of 3 plants could be assessed. Exacted plants were measured by hand to determine root length and mass and evaluated using WinRHIZO image analysis system (available through Regent instruments at www.regent.qc.ca/products/rhizo/WinRHIZO.html.

[1] = test system: Glycine max (soybean) roots; experiment: WinRHIZO root image analysis of soybean (Example 2); type: in vivo
Description: as §5, §6, §7, §8

SCN (inbred colony OP50) = experiment: SCN cyst counts on soybean pot plants, seed treated with fluopyram (Example 1); type: in vivo, soybean cyst nematodes; details: base (color/coating) treatment only, two months after planting
Description: Two tests were planted with Jack (an SCN resistant soybean variety with PI 88788 resistance) and two genetically modified Jack varieties (AXN2 and AXMI031) known to produce a nematicidal protein. The seed were treated with a color/coating base or the same base plus one of two different rates of fluopyram (experiment 1 used 0.075 mg fluopyram/seed and experiment 2 used 0.15 mg fluopyram/seed). The SCN used to inoculate both tests were collected from an inbred colony (OP50) with the ability to overcome PI 88788 resistance.
Tests were conducted as non-randomized blocks with a minimum of 10 replicates. Seed were planted in individual 4″ clay pots with coarse sand and inoculated with approximately 20,000 OP50 juveniles in ten equal inoculations beginning at planting and again approximately every third day. Plants were maintained in a germination chamber. Blocks were rotated approximately every third day to minimize potential influence of environmental variance. Two months after planting, plants were harvested and cysts were collected and counted to evaluate the efficacy of the nematicide and traits, both individually and in combination with each other.

SCN (HG2.5.7) = experiment: SCN cyst counts on Axmi031 soybean treated with Bacillus firmus (Example 4, FIG. 2); type: in vivo, soybean cyst nematodes; details: Axmi031 expression
Excerpt: Soybeans (6-10 seeds each) in this study included: Control SB171 (transfected control with non gene of interest); SB 171 treated with Bacillus firmus CNCM I-1582 spore control plant; Axmi031 transgenic plant (which also contains non gene of interest); Axmi031 transgenic plant (which also contains non gene of interest) treated with Bacillus firmus CNCM I-1582 spore.
Soybeans (6-10 seeds/plant and treatment) were planted into 4″ clay pots in sand infested with approximately 37,000 SCN eggs (HG2.5.7) at time of planting. Soybean plants were reinfested with 20,000 SCN eggs (HG2.5.7) at approximately 4 weeks post planting. Plants were grown 57 days post reinfestation date. Cysts were harvested from each pot and counted. PCR and Western analysis were done on each AXMI031 plant. Negative segregants were removed from analysis. Data shown in FIG. 2 represents six plants for SB171 each treatment and all PCR/Western positive Axmi031 plants.

[2] = metalaxyl 2 g ai added to Axmi031
[3] = metalaxyl 4 g ai added to Axmi031

Molecule: CN/C(=N\[N+](=O)[O-])NCc1cnc(Cl)s1 [clothianidin]
- Insect Mortality (S. frugiperda; CTD 0.125 mg ai/seed): 8%
- Leaf Feeding Rating (S. frugiperda; CTD 0.125 mg ai/seed): 3.00
- Insect Mortality (S. frugiperda; CTD 0.25 mg ai/seed): 12%
- Leaf Feeding Rating (S. frugiperda; CTD 0.25 mg ai/seed): 2.77
- Insect Mortality (S. frugiperda; CTD 0.5 mg ai/seed): 11%
- Leaf Feeding Rating (S. frugiperda; CTD 0.5 mg ai/seed): 3.00
- additional increase in mortality in the presence of Axmi205 (S. frugiperda; clothianidin 0.125 mg ai/seed): 88%
- additional increase in mortality in the presence of Axmi205 (S. frugiperda; clothianidin 0.5 mg ai/seed): 54%
- increase in mortality above the negative control (S. frugiperda; highest rate of clothianidin (0.5 mg ai/seed)): 57%
- increase in mortality above the negative control (S. frugiperda; lowest rate of clothianidin (0.125 mg ai/seed)): 14%
- increase in mortality above the negative control (S. frugiperda; middle rate of clothianidin (0.25 mg ai/seed)): 71%
- Root Damage Rating (D. virgifera; CTD 0.125 mg ai/seed): 0.56
- Root Damage Rating (D. virgifera; CTD 0.25 mg ai/seed): 0.32
- Root Damage Rating (D. virgifera; CTD 0.5 mg ai/seed): 0.04
- reduction of root damage over the negative control (D. virgifera; highest rate of clothianidin tested (0.5 mg ai/seed)): 96%
- reduction of root damage over the negative control (D. virgifera; lowest rate of clothianidin tested (0.125 mg ai/seed)): 67%

Molecule: COCC(=O)N(c1c(C)cccc1C)C(C)C(=O)OC (stereo not drawn) [metalaxyl]
- plant shoot height, trend with rate (Glycine max (soybean); metalaxyl 2 and 4 g ai/100 kg seed): increased with increasing rates
- additional increase in plant total mass (Glycine max (soybean); metalaxyl 2 g ai on Axmi031 plants): 5%
- additional shoot height (Glycine max (soybean); metalaxyl 2 g ai/100 kg seed on Axmi031 plants): 5%
- increase in above ground plant mass compared to Axmi031 alone (Glycine max (soybean); metalaxyl 4 g ai on Axmi031 plants): 11%
- additional shoot height (Glycine max (soybean); metalaxyl 4 g ai/100 kg seed on Axmi031 plants): 8%
- increase in root lengths [1, 2]: 60%
- increase in root surface area [1, 2]: 42%
- increase in root volume [1, 2]: 27%
- increase in root lengths [1, 3]: 68%
- increase in root surface area [1, 3]: 37%
- increase in root volume [1, 3]: 11%
- root tips, forks, and crossings ([1]; metalaxyl added to Axmi031, trend with rate): increased as metalaxyl rate increased

B1: Axn2: nematicidal protein trait expressed in genetically modified Jack soybean (gene axn2, Table 1) (protein, listed as Bacillus thuringiensis)
chain: MRIRRNQSTLSHNERLAFTNAVLELKRRPSRLPMSLGSTSRYDDYVYWHLQSMENQTSTTPGWAHRGPAFLPWHRYYLNQFEEDLQRIDHTVTLPYWDWTVDNSTDSSVPGSPWTDDFMGGDGDPTQEYTVTTGPFTGDNWKLTLFDHHENEPHNARLRRQLGTTLNASGNTISINLPTDSEVQNCLLETPYYVSPWRAGQDVNQPALNPTKPSFCNRLEGWYGAGSIHNKVHVWVAGATEGSMIWMSSPNDPVFFLHHANIDRLWVQWQANNPNEGYHPTGNGNEVGPTGHNLNDSMNPWGRKVTPNNVLNHYSLGYTYDTDSTPLSEIFMHTFNLKIRKEKQIKDGHFGLSQEDLDKL
- percent reduction in average number of cysts compared to Jack (SCN (inbred colony OP50); first experiment): 20%
- percent reduction in average number of cysts compared to Jack (SCN (inbred colony OP50); second experiment): 43%

B2: Axmi031: nematicidal protein trait expressed in genetically modified soybean (gene axmi031, Table 1) (protein)
chain: MDCNLQSQQNIPYNVLAIPVSNVNSLTDTVGDLKKAWEEFQKTGSFSLTALQQGFSASQGGTFNYLTLLQSGISLAGSFVPGGTFVAPIINMVIGWLWPHKNKNADTENLINLIDSEIQKQLNKALLDADRNEWSSYLESIFDSSNNLNGAIVDAQWSGTVNTTNRTLRNPTESDYTNVVTNFIAADGDIANNENHIMNGNFDVAAAPYFVIGATARFAAMQSYIKFCNAWIDKVGLSDAQLTTQKANLDRTKQNMRNAILNYTQQVMKVFKDSKNMPTIGTNKFSVDTYNVYIKGMTLNVLDIVAIWPSLYPDDYTSQTALEQTRVTFSNMVGQEEGTDGSLRIYNTFDSFSYQHSPIPNNNVNLISYYNDELQNLELGVYTPPKKGSGYSYPYGFVLNYANSKYKYGDSNDPESLGGLSTLSAPIQQVNAATQNSKYLDGEILNGIGASLPGYCTTGCSPTEPPFSCTSTANGYKASCNPSDTNQKINALYPFTQANVKGNTGKLGVLASLVSYDLNPKNVFGELDSDTNNVILKGIPAEKGYFPNNARPTVVKEWINGASAVPLDSGNTLFMTATNLTATQYRIRIRYANPNSNTQIGVRITQNGSLISSSNLTLYSTTDMNNTLPLNVYVIGENGNYTLQDLYNTTNVLSTGDITLQITGGDQKIFIDRIEFVPTMPVPGNTNNNNGNNNGNNNPPHHVCAIAGTQQSCSGPPKFEQVSDLEKITTQVYMLFKS
modifications: AXMI-031(A-D)
- percent reduction in average number of cysts compared to Jack (SCN (inbred colony OP50); first experiment): 92%
- percent reduction in average number of cysts compared to Jack (SCN (inbred colony OP50); second experiment): 88%
- shoot length versus untreated negative control (UTC) (Glycine max (soybean); 28 days after planting (DAP), Axmi031 without metalaxyl): 14%
- increase in plant total mass (Glycine max (soybean); presence of Axmi031, no metalaxyl): 13%
- WinRHIZO root values versus negative control ([1]; Axmi031 as an individual component): comparable to, or slightly below, the negative control
- SCN cyst counts in transgenic soybean plants (SCN (HG2.5.7)): correlates with reduction in SCN cysts counts
